Values of other authors as cited in patent US20230106592A1, “METHOD FOR TREATING CANCER USING A COMBINATION OF DNA DAMAGING AGENTS AND ATR INHIBITORS” (Vertex Pharmaceuticals Incorporated, priority 2015, published 2023).
Like-named read-outs stand apart in the source and are kept apart here.

System: ovarian cancer
Conditions: cited from earlier work

Row | Structure (SMILES) | Outcome of prior line of treatment (monotherapy, refractory high grade serous ovarian cancer subject) | Outcome of prior line of treatment (ovarian cancer subject with BRCA2 germline mutation)
1 | Cn1ncnc1[C@H]1c2n[nH]c(=O)c3cc(F)cc(c23)N[C@@H]1c1ccc(F)cc1 [Talazoparib] | progressive disease after 10 months | –
2 | O=C(c1cc(Cc2n[nH]c(=O)c3ccccc23)ccc1F)N1CCN(C(=O)C2CC2)CC1 [olaparib] | – | no response
